Assay results: patent US11098288B2, “D-type amino acid dehydrogenase” (Kureha Corporation, priority 2017, dated 2021)

Legend:
[1] = tested on: Six-mutation enzyme (Asp94Ser, Met154Leu, Val158Gly, Thr173Ile, Arg183Met, His229Asn; SEQ ID NO: 8); assay: D-amino acid synthesis activity (amination of 2-oxo acid), six-mutation enzyme; type: biochemical, Thermosyntropha lipolytica; details: 5 mM 2-oxoacid, 200 mM ammonium chloride, glycine buffer pH 9.5, 50° C.; for D-amino acid synthesis activity (specific activity), Six-mutation enzyme, NADH: NADH 0.1 mM; for D-amino acid synthesis activity (specific activity), Six-mutation enzyme, NADPH: NADPH 0.1 mM
Experimental: Using this as a template, the gene of the enzyme was amplified by PCR using “PrimeSTAR Max DNA Polymerase” available from Takara Bio Inc. PCR was performed according to the manufacturer's instructions. The PCR reaction solution was prepared so as to contain 0.3 μM of each of the following primers and 50 ng of the above-described template DNA.
According to the manufacturer's protocol, the purified amplification product was incorporated into a pET100 vector (I available from Invitrogen) of a plasmid for protein expression to construct a six-mutation D-type amino acid dehydrogenase/pET100. The expression vector was constructed so as to incorporate a six-mutation D-type amino acid dehydrogenase gene derived from T. lipolytica downstream of the T7 promoter and […], and upstream of the T7 terminator.
(§1) The activity of the enzyme was measured by determining a decrease in absorbance at wavelength of 340 nm of NADPH or NADH […] by the catalytic reaction of the enzyme and determining the enzymatic activity by the determined decrease in absorbance as an indicator. […] The absorbance was measured by an ultraviolet-visible spectrophotometer UV-1800 (available from SHIMADZU). […]

[2] = tested on: Five-mutation enzyme (five-mutation D-type amino acid dehydrogenase, SEQ ID NO: 14); assay: D-amino acid synthesis activity (amination of 2-oxo acid), five-mutation enzyme; type: biochemical, Thermosyntropha lipolytica; details: 5 mM 2-oxoacid, 200 mM ammonium chloride, glycine buffer pH 9.5, 50° C.; for D-amino acid synthesis activity (specific activity), Five-mutation enzyme, NADH: NADH 0.1 mM; for D-amino acid synthesis activity (specific activity), Five-mutation enzyme, NADPH: NADPH 0.1 mM
Experimental: The PCR reaction solution was prepared so as to contain 0.3 μM of each of the following primers and 50 ng of the above-described template DNA.
After PCR, 2 μL of DpnI was added to the reaction solution and treated at 37° C. for 1 hour, and E. coli DH5α was transformed using the solution after treatment. Transformed cells were coated on an LB agar plate containing antibiotic ampicillin (final concentration 100 mg/L) and cultured at 37° C. for 16 hours. The generated colonies were harvested and cultured in LB liquid medium containing ampicillin overnight. The strains were collected from the culture solution by centrifugation, and five-mutation D-type amino acid dehydrogenase/pET100 was collected according to the manufacturer's protocol using AccuPrep Plasmid Mini Extraction Kit (BIONEER).
as §1

[3] = tested on: Wild type D-type amino acid dehydrogenase derived from T. lipolytica; assay: D-amino acid synthesis activity (amination of 2-oxo acid), wild type enzyme; type: biochemical, Thermosyntropha lipolytica; details: 5 mM 2-oxoacid, 200 mM ammonium chloride, glycine buffer pH 9.5, 50° C.; for D-amino acid synthesis activity (specific activity), Wild type, NADH: NADH 0.1 mM; for D-amino acid synthesis activity (specific activity), Wild type, NADPH: NADPH 0.1 mM
Experimental: as §1

[4] = target: D-type amino acid dehydrogenase derived from T. lipolytica (Thermosyntropha lipolytica, UniProt A0A1M5M5H3); assay: Coenzyme dependence by activity-staining after disc gel electrophoresis; type: biochemical; details: 10 mM meso-diaminopimelic acid, 1.25 mM coenzyme, pH 8.0, 50° C., 30 minutes
Experimental: The coenzyme dependence of the enzyme was evaluated by an activity-staining method due to an enzymatic catalytic reaction. More specifically, an appropriate amount of enzyme solution was subjected to disc gel electrophoresis. […] A reaction formula is indicated below. In the following reaction formula, the D-type amino acid dehydrogenase is referred to as “meso-DAPDH”.

[5] = substrate: NC(=O)c1ccc[n+]([C@@H]2O[C@H](COP(=O)([O-])OP(=O)(O)OC[C@H]3O[C@@H](n4cnc5c(N)ncnc54)[C@H](O)[C@@H]3O)[C@@H](O)[C@H]2O)c1; assay: purified protein, by the assay type; type: biochemical, Thermosyntropha lipolytica; details: other: meso-diaminopimelic acid as substrate, 50° C., values for meso-diaminopimelic acid determined using NADP^+ as the coenzyme
Experimental: The absorbance was measured by an ultraviolet-visible spectrophotometer UV-1800 (available from SHIMADZU). The specific activity of the enzyme was calculated from the concentration of the enzyme used and enzyme dilution rate using the obtained absorbance change and the following equation.
A turnover number (kcat) as a reaction rate parameter, a Michaelis constant (Km) value, and catalytic efficiency (kcat/Km) were determined with Igor Pro ver. 3.14 (available from WaveMetrics) based on Michaelis-Menten equation after the initial velocities were plotted against different substrates and coenzyme concentrations.

[6] = substrate: N[C@H](CCC[C@H](N)C(=O)O)C(=O)O; assay: purified protein, by the assay type; details: other: meso-diaminopimelic acid as substrate, 50° C., values for meso-diaminopimelic acid determined using NADP^+ as the coenzyme

Molecule | D-amino acid synthesis activity (specific activity), Six-mutation enzyme, NADH [1] | D-amino acid synthesis activity (specific activity), Six-mutation enzyme, NADPH [1] [µmol/min/mg] | D-amino acid synthesis activity (specific activity), Five-mutation enzyme, NADH [2] | D-amino acid synthesis activity (specific activity), Five-mutation enzyme, NADPH [2] [µmol/min/mg] | D-amino acid synthesis activity (specific activity), Wild type, NADH [3] | D-amino acid synthesis activity (specific activity), Wild type, NADPH [3] | coenzyme utilization (activity-staining) [4] | Km [5] [mM] | kcat [5] [s⁻¹] | kcat/Km [5] [M⁻¹ s⁻¹] | Km [6] [mM] | kcat [6] [s⁻¹] | kcat/Km [6] [M⁻¹ s⁻¹]
CC(C)CC(=O)C(=O)O [2-oxo-4-methylpentanoic acid/D-leucine, 2-oxo-4-methylpentanoic acid] | No Activity | 0.11 ± 0.0013 | 0.11 ± 0.0027 µmol/min/mg | 0.20 ± 0.0071 | 0.27 ± 0.0064 µmol/min/mg | 0.061 ± 0.00082 µmol/min/mg |  |  |  |  |  |  | 
CCCCCCC(=O)C(=O)O [2-oxooctanoic acid] | 0.0098 ± 0.0047 µmol/min/mg | 0.35 ± 0.0093 | 0.017 ± 0.0027 µmol/min/mg | 0.47 ± 0.012 | No Activity | 0.101 ± 0.010 µmol/min/mg |  |  |  |  |  |  | 
O=C(O)CC(=O)C(=O)O [2-oxobutanedioic acid/D-aspartic acid, 2-oxobutanedioic acid] | 0.12 ± 0.010 µmol/min/mg | 0.32 ± 0.0082 | 0.14 ± 0.014 µmol/min/mg | 0.60 ± 0.035 | 0.43 ± 0.015 µmol/min/mg | 5.7 ± 0.60 µmol/min/mg |  |  |  |  |  |  | 
CC(C)C(=O)C(=O)O [2-oxo-3-methylbutanoic acid/D-valine, 2-oxo-3-methylbutanoic acid] | 0.18 ± 0.00089 µmol/min/mg | 0.058 ± 0.0027 | 0.18 ± 0.00078 µmol/min/mg | 0.11 ± 0.0034 | 0.43 ± 0.0026 µmol/min/mg | 0.33 ± 0.0094 µmol/min/mg |  |  |  |  |  |  | 
O=C(O)C(=O)Cc1ccccc1 [2-oxo-3-phenylpropanoic acid] | No Activity | 0.036 ± 0.0037 | No Activity | 0.068 ± 0.0039 | 0.020 ± 0.0053 µmol/min/mg | No Activity |  |  |  |  |  |  | 
NC(=O)c1ccc[n+]([C@@H]2O[C@H](COP(=O)([O-])OP(=O)(O)OC[C@H]3O[C@@H](n4cnc5c(N)ncnc54)[C@H](O)[C@@H]3O)[C@@H](O)[C@H]2O)c1 [NAD^+] |  |  |  |  |  |  | utilized |  |  |  |  |  | 
CSCCC(=O)C(=O)O [2-oxo-4-(methylthio) butanoic acid] | No Activity | 0.089 ± 0.0038 | No Activity | 0.18 ± 0.0022 | 0.0033 ± 0.0016 µmol/min/mg | 0.059 ± 0.0065 µmol/min/mg |  |  |  |  |  |  | 
CCC(=O)C(=O)O [2-oxobutanoic acid/D-2-aminobutyric acid, 2-oxobutanoic acid] | 0.032 ± 0.0023 µmol/min/mg | 0.077 ± 0.0041 | 0.044 ± 0.0049 µmol/min/mg | 0.13 ± 0.0020 | 0.13 ± 0.0041 µmol/min/mg | 2.3 ± 0.030 µmol/min/mg |  |  |  |  |  |  | 
NADP^+ |  |  |  |  |  |  | utilized |  |  |  |  |  | 
O=C(O)CCC(=O)C(=O)O [2-oxoglutaric acid/D-glutamic acid, 2-oxoglutaric acid] | No Activity | 0.067 ± 0.0046 | No Activity | 0.039 ± 0.0073 | No Activity | 0.27 ± 0.010 µmol/min/mg |  |  |  |  |  |  | 
CC(=O)C(=O)O [2-oxopropanoic acid/D-alanine, 2-oxopropanoic acid] | 0.0053 ± 0.0036 µmol/min/mg | 0.044 ± 0.0034 | 0.0077 ± 0.0015 µmol/min/mg | 0.071 ± 0.00074 | 0.49 ± 0.016 µmol/min/mg | 5.3 ± 0.038 µmol/min/mg |  |  |  |  |  |  | 
D-type amino acid dehydrogenase derived from T. lipolytica (Thermosyntropha lipolytica DSM 11003) (protein) MGEKIRVAIVGYGNIGRYALDAIKAAPDMELAGVVRRSSSLGDKPAELADVPVVGSIKELTGVKVALLCTPTRSVPEYAREILALGINTVDSYDIHGQLADLRLELDKVAKEHNAVAVISAGWDPGTDSMVRCMFEFMAPKGITYTNFGPGMSMGHSVAVKAVKGVKNALSMTIPLGTGVHRRMVYVELEPGADFAQVEKAVKTDPYFVKDETHVIQVEDVDALIDMGHGVLMERKGVSGGTHNQLLSFSMRINNPALTAQIMVASARASVKQKPGAYTMIQIPIIDYMYGDPDEIIRQLV |  |  |  |  |  |  |  | 14.8 | 77.5 | 5220 | 5.68 | 73.7 | 13000
